Here are results for one molecule from US9326972B2, “Use of phenylmethimazoles, methimazole derivatives, and tautomeric cyclic thiones for the treatment of autoimmune/inflammatory diseases associated with toll-like receptor overexpression” (Ohio University, priority 2004, dated 2016).

The test system of one assay is ICAM-1 and VCAM-1. Description: Histology and ICAM-1/VCAM-1 immunohistochemistry in organs of LPS-treated mice. Format: in vivo, mouse. As for the experimental part:
Histology: Tissue from liver, lung, kidney and heart from normal, LPS and LPS plus C-10 treated mice (experiment in Table 5), were fixed in 4%-PBS-formalin overnight. They then were dehydrated serially in alcohols 50%-70%-90%-100%, clarified in chloroform, and embedded in paraffin. Five (5) sections were obtained and mounted on Vectabond™ (Vector Laboratories, Inc. Burlingame, Calif.) pretreated slides. The sections were incubated twice (10 minutes each) in xylol and re-hydrated by serial alcohol treatments, 100%-90-70-50, followed by distilled water. Tissues were stained with Hematoxylin-Eosin using standard protocols, mounted, and observed by optical microscopy in a double blind manner.
Immunohistochemistry (IHC): C10 (pMMI) effects on the over-expression of adhesion molecules induced by LPS were studied in different organs. […] At 18 h after LPS injection, mice were sacrificed and the heart, lung, liver spleen and kidney were removed and fixed in 4% formalin in PBS. The tissue was then dehydrated in serial alcohols (50% v/v, twice; 70% v/v, twice; 80% v/v, twice; 95% v/v, twice; and 100% v/v, twice), cleared in pure chloroform, embedded in paraffin and sectioned ([…] thickness) and mounted on Vectabond™ (Vector Laboratories, Inc. Burlingame, Calif.) pre-treated slides. […]

A further assay relates to IFN-β promoter. Description: IFN-β promoter luciferase reporter in FRTL-5 thyrocytes. In kind it is cell-based, rat. Here is the method: FIG. 5. Phenylmethimazole (CIO) and Methimazole (MMI) inhibit the ability of Poly (I:C), lipopolysaccharide (LPS) and IL-1β to increase IFN-β gene expression (Top Left) and IRF-3 transactivation (Top Right) in FRTL-5 thyrocytes. (Top Left) Cells were co-transfected with IFNβ-Luc and control vector (pRLTk-Int), then treated with or without (−) Poly (I:C) (100 μg/ml), LPS (100 ng/ml), or IL-1β (10 ng/ml) in the presence of the vehicle (DMSO) alone (−), C10, or MMI for 6 hours. Data was obtained with the Dual Luciferase Assay system. (Top Right) Cells were co-transfected with Gal4 DBD/IRF-3 and Gal4-Luc then treated with nothing (−), poly (I:C), LPS, or IL-1β as in (Top Left) in the presence of DMSO or C10 for 6 hours. Data was obtained by Luciferase assay. Also shown is a graphic depiction (Bottom) of how the cis reporting system is working. Data are representative of multiple experiments.
C10, at 0.5 mM, inhibited the ability of poly (I:C) to increase IFN-β promoter activity (luciferase luminescence; P<0.01) when incubated with FRTL-5 thyrocytes transfected with pIFN-β-luc constructs (FIG. 5 Top Left, Poly (I:C) vs untreated (−)).
Plasmids for Reporter Gene Assays. Human IRF-3 was amplified from human cDNA and cloned into pCR 2.1 by the TOPO/TA (Invitrogen, Carlsbad, Calif.) cloning method, and then sequenced. […]

A further assay has as its system Stat1. Description: LPS-induced Stat1 phosphorylation in RAW 264.7 macrophages (immunoblot). In kind it is cell-based, mouse.
In assay [1] the test system is human aortic endothelial cells (HAEC). Conditions: cited from earlier work.

Take `Cn1c(-c2ccccc2)cnc1S` [Compound C10, 5-Phenylmethimazole]: in the assay on ICAM-1 and VCAM-1 (H&E, 18 hours), the “microcirculatory damage and inflammatory cellular infiltration in lung” value is reported as “ameliorated”. Besides, the “ICAM-1 and VCAM-1 over-expression on endothelial cells (lung, liver)” value in the assay with ICAM-1 and VCAM-1 (immunohistochemistry) is recorded as “suppressed”. In the assay with IFN-β promoter (FRTL-5, LPS 100 ng/ml or IL-1β 10 ng/ml, 0.5 mM C-10, 5 mM MMI, P<0.05 or better), the “LPS- or IL-1β-increased IFN-β luciferase activity” value was “inhibited the increase”. Besides, the “poly (I:C)-increased IFN-β promoter activity (luciferase)” value in the assay on IFN-β promoter (FRTL-5, Poly (I:C) 100 μg/ml, 6 hours, C10 0.5 mM, P<0.01) is given as “inhibited”. Also, the “LPS induced Stat1 phosphorylation in cytoplasmic and nuclear fractions” value in the assay with Stat1 (RAW 264.7) is on record as “reduce”. Besides, the “Stat1 serine phosphorylation at residue 727” value with Stat1 (RAW 264.7, LPS 500 ng/mL 3 hours, 0.5 mM C10) is listed as “reduce”. In assay [1], the “cytokine-induced HAEC expression of VCAM-1 (protein and mRNA)” value was “strongly inhibits”; the “monocytic cell adhesion to cytokine inflamed HAEC under in vitro flow conditions” value is recorded as “inhibits”. Also, in assay [1] (cytokine-induced, HAEC), the E-selectin expression entry is reported as “modest effect” and the ICAM-1 expression entry is “very little effect”.
